≈ marks a conversion by molar mass, not a printed value. Like-named read-outs stand apart in the source and are kept apart here. Blank lines part the entries; values can stand above or below the molecule they belong to.
Assays:
Test in all cases: MIC, CLSI broth microdilution
Assay type in all cases: cell-based
[1] = tested on: A. baumannii AABA1009 (Fluoroquinolone-resistant)
In short: (§1)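 CLSI M7-A7 broth microdilution in Mueller Hinton Broth using two-fold compound serial dilutions. Inoculum was prepared from the previous day's agar colonies at a final 5×10^5 CFU/mL. Plates were incubated at 35° C for 20 hours in ambient air.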

[2] = tested on: A. baumannii AABA1020 (Fluoroquinolone-resistant); conditions: Table 3
In short: as §1

[3] = tested on: A. baumannii AABA1065 (Fluoroquinolone-susceptible); conditions: for MIC: Acinetobacter baumannii
In short: as §1

[4] = tested on: E. coli AECO001 (Fluoroquinolone susceptible, ATCC25922); conditions: for MIC: Escherichia coli
In short: as §1

[5] = tested on: E. coli AECO002 (Fluoroquinolone susceptible); conditions: Table 3
In short: as §1

[6] = tested on: E. coli AECO066 (Fluoroquinolone-resistant); conditions: for MIC: Escherichia coli
In short: as §1

[7] = tested on: E. coli AECO086 (Fluoroquinolone-resistant); conditions: Table 3
In short: as §1

[8] = tested on: P. aeruginosa APAE001 (Fluoroquinolone-susceptible, ATCC27853); conditions: for MIC: Pseudomonas aeruginosa
In short: as §1

[9] = tested on: P. aeruginosa APAE002 (Fluoroquinolone susceptible); conditions: Table 3
In short: as §1

[10] = tested on: P. aeruginosa APAE054 (Fluoroquinolone-resistant); conditions: for MIC: Pseudomonas aeruginosa
In short: as §1

[11] = tested on: S. aureus ASAU001 (Fluoroquinolone-susceptible, ATCC29213); conditions: for MIC: Staphylococcus aureus
In short: as §1

[12] = tested on: S. aureus ASAU002 (Fluoroquinolone-susceptible, ATCC33591 (MRSA)); conditions: Table 3
In short: as §1

[13] = tested on: S. aureus ASAU1031 (Fluoroquinolone-resistant); conditions: for MIC: Staphylococcus aureus
In short: as §1

[14] = tested on: S. aureus ASAU1033 (Fluoroquinolone-resistant); conditions: Table 3
In short: as §1

[15] = tested on: S. pneumoniae ASPN001 (Fluoroquinolone-susceptible, ATCC49619); conditions: for MIC: Streptococcus pneumoniae
In short: as §1

[16] = tested on: S. pneumoniae ASPN002 (Fluoroquinolone-susceptible, ATCC10813); conditions: Table 3
In short: as §1

[17] = tested on: S. pneumoniae ASPN1018 (Fluoroquinolone-resistant); conditions: Table 3
In short: as §1

[18] = tested on: S. pneumoniae ASPN1027 (Fluoroquinolone-resistant); conditions: for MIC: Streptococcus pneumoniae
In short: as §1

- MIC ([1]; Acinetobacter baumannii, Table 2, read-out: MIC AABA 1009): > 8 µg/mL
- MIC ([2]; Acinetobacter baumannii): > 8 µg/mL
- MIC ([3]; Table 2, read-out: MIC AABA 1065): ≤ 1 µg/mL
- MIC ([3]; Table 3): < 1 µg/mL
- MIC ([4]; Table 2, 35° C., 20 hours, read-out: MIC AECO 001): ≤ 1 µg/mL
- MIC ([4]; Table 3): < 1 µg/mL
- MIC ([5]; Escherichia coli): < 1 µg/mL
- MIC ([6]; Table 2, read-out: MIC AECO 066): > 8 µg/mL
- MIC ([6]; Table 3): > 8 µg/mL
- MIC ([7]; Escherichia coli): > 8 µg/mL
- MIC ([8]; Table 2, read-out: MIC APAE 001): 1 to 8 µg/mL (≈ 2.77 to 22.1 µM)
- MIC ([8]; Table 3): 1 to 2 µg/mL (≈ 2.77 to 5.53 µM)
- MIC ([9]; Pseudomonas aeruginosa): < 1 µg/mL
- MIC ([10]; Table 2, read-out: MIC APAE 054): > 8 µg/mL
- MIC ([10]; Table 3): > 8 µg/mL
- MIC ([11]; Table 2, read-out: MIC ASAU 001): ≤ 1 µg/mL
- MIC ([11]; Table 3): < 1 µg/mL
- MIC ([12]; Staphylococcus aureus): < 1 µg/mL
- MIC ([13]; Table 2, read-out: MIC ASAU 1031): > 8 µg/mL
- MIC ([13]; Table 3): > 8 µg/mL
- MIC ([14]; Staphylococcus aureus): > 8 µg/mL
- MIC ([15]; Table 2, read-out: MIC ASPN 001): 1 to 8 µg/mL (≈ 2.77 to 22.1 µM)
- MIC ([15]; Table 3): 1 to 2 µg/mL (≈ 2.77 to 5.53 µM)
- MIC ([16]; Streptococcus pneumoniae): 1 to 2 µg/mL (≈ 2.77 to 5.53 µM)
- MIC ([17]; Streptococcus pneumoniae): > 8 µg/mL
- MIC ([18]; Table 2, read-out: MIC ASPN 1027): > 8 µg/mL
- MIC ([18]; Table 3): > 8 µg/mL
Compound: C[C@H]1COc2c(N3CCN(C)CC3)c(F)cc3c(=O)c(C(=O)O)cn1c23 [Levofloxacin, reference compound]

- MIC AABA 1009 ([1]; Table 2): C (MIC's of greater than 8.0 μg/mL = C)
- MIC AABA1020 [2]: D (MIC's of greater than 8.0 μg/mL = D)
- MIC AABA 1065 ([3]; Table 2): A (MIC's of 1.0 μg/mL or less = A)
- MIC AABA 1065 ([3]; Table 3): A (MIC's of less than 1.0 = A)
- MIC AECO 001 ([4]; Table 2, 35° C., 20 hours): A (MIC's of 1.0 μg/mL or less = A)
- MIC AECO 001 ([4]; Table 3): A (MIC's of less than 1.0 = A)
- MIC AECO002 [5]: A (MIC's of less than 1.0 = A)
- MIC AECO 066 ([6]; Table 2): C (MIC's of greater than 8.0 μg/mL = C)
- MIC AECO 066 ([6]; Table 3): D (MIC's of greater than 8.0 μg/mL = D)
- MIC AECO086 [7]: D (MIC's of greater than 8.0 μg/mL = D)
- MIC APAE 001 ([8]; Table 3): C (MIC's of 2.0 μg/mL to 8.0 μg/mL = C)
- MIC APAE002 [9]: B (MIC's of 1.0 μg/mL to 2.0 μg/mL = B)
- MIC APAE 054 ([10]; Table 2): C (MIC's of greater than 8.0 μg/mL = C)
- MIC APAE 054 ([10]; Table 3): D (MIC's of greater than 8.0 μg/mL = D)
- MIC ASAU 001 ([11]; Table 2): A (MIC's of 1.0 μg/mL or less = A)
- MIC ASAU 001 ([11]; Table 3): A (MIC's of less than 1.0 = A)
- MIC ASAU002 [12]: A (MIC's of less than 1.0 = A)
- MIC ASAU 1031 ([13]; Table 2): C (MIC's of greater than 8.0 μg/mL = C)
- MIC ASAU 1031 ([13]; Table 3): D (MIC's of greater than 8.0 μg/mL = D)
- MIC ASAU1033 [14]: D (MIC's of greater than 8.0 μg/mL = D)
- MIC ASPN 001 ([15]; Table 3): B (MIC's of 1.0 μg/mL to 2.0 μg/mL = B)
- MIC ASPN002 [16]: B (MIC's of 1.0 μg/mL to 2.0 μg/mL = B)
- MIC ASPN1018 [17]: D (MIC's of greater than 8.0 μg/mL = D)
- MIC ASPN 1027 ([18]; Table 2): C (MIC's of greater than 8.0 μg/mL = C)
- MIC ASPN 1027 ([18]; Table 3): D (MIC's of greater than 8.0 μg/mL = D)
Compound: N[C@@H]1C[C@H]2CCCc3c(c(F)cc4c(=O)c(C(=O)O)cn(C5CC5)c34)N2C1.O=C(O)C(F)(F)F [7D/39, (7aR,9R)-9-Amino-4-cyclopropyl-12-fluoro-1-oxo-4,5,6,7,7a,8,9,10-octahydro-1H-pyrrolo[1′,2′:1,7]-azepino[2,3-h]quinoline-2-carboxylic acid trifluoroacetate]
- MIC APAE 001 ([8]; Table 2): B (MIC's of greater than 1.0 μg/mL to 8.0 μg/mL = B)
- MIC ASPN 001 ([15]; Table 2): B (MIC's of greater than 1.0 μg/mL to 8.0 μg/mL = B)

Source: US20120058989A1, “ANTIBACTERIAL FLUOROQUINOLONE ANALOGS” (Achaogen, Inc., priority 2008, published 2012)
